# Assay results from patent US11400070B2, “Methods of treating retinal diseases” (Alimera Sciences, Inc., priority 2018, dated 2022).
# Where two headings read alike, the source gives them in different places.
# Tests used:
# ARPE-19 monolayers [1] = assay: Cytotoxicity by microscopic inspection of monolayers and TEER reduction; type: cell-based; settings: for Cytotoxic: ARPE-19 monolayers, any concentration tested; for Cytotoxicity observed: any of the concentrations tested
# Procedure: Cytotoxicity of test compounds was assessed by microscopic inspection of cellular monolayers and reductions in TEER following the administration of test compounds. All compounds were formulated fresh on the day of the experiment. Final concentrations were prepared by serial dilutions in DMEM media. Separate vehicle controls were prepared for each study. Formulation for all agents utilized vehicles containing less than 0.1% DMSO.
# ARPE-19 monolayers [2] = assay: Suppression of gHSA-induced reduction of TEER in confluent ARPE-19 monolayers; type: cell-based
# rd10 mice [3] = assay: Scotopic and photopic electroretinogram recordings in rd10 mice; type: in vivo, mouse
# Procedure: (§1) Mice were treated in accordance with the Association for Research in Vision and Ophthalmology. Rd10^+/+ mice (B6.CXB1-Pde6brd10/J) were given daily subcutaneous injections of 40 mg/kg metipranolol provided by the British Pharmacopoeia Commission Laboratory, Tddington, UK or vehicle (PBS containing 5.8% ethanol) between P14 to P65.
# Scotopic and photopic electroretinograms (ERGs) were recorded using a Diagnosys instrument (Espion, Littleton, Mass.). See Komeima K, Rogers B S, Lu L, Campochiaro P A. Antioxidants reduce cone cell death in a model of retinitis pigmentosa. Proc Natl Acad Sci USA 2006; 103:11300-5 and Komeima K, Rogers B S, Campochiaro P A. Antioxidants slow photoreceptor cell death in mouse models of retinitis pigmentosa. J Cell Physiol 2007; 213:809-15. For scotopic recordings, rd10 mice were dark adapted for overnight, anesthetized with a mixture of ketamine (100 mg/kg) and xylazine (5 mg/kg) by intraperitoneal injections, and pupils were dilated with 0.5% tropicamide and 0.5% phenylephrine hydrochloride provided by Santen Pharmaceutical Co., Osaka, Japan. Mice were placed on a heating pad and platinum electrodes were placed on the corneas after application of gonioscopic prism solution provided by Alcon Labs, Fort Worth, Tex. Reference electrode was attached subcutaneously between the eyes on the scalp and a ground electrode was attached to the tail. The Ganzfeld illuminator was then placed over the head in a position to ensure equal illumination to both eyes. Scotopic ERGs were recorded at 11 flash intensities (−4, −2.5, −2.2, −1.79, −1.39, −1, −0.6, −0.39, −0.20, 1.0, 1.39 log cd-s/m2). For each flash intensity, 5 readings were taken and averaged. For photopic ERGs, mice were initially light adapted for 7 minutes with 30 cd/m2 background light and flashed at 3 light intensities (0.6, 1.0, 1.39 log cd-s/m2). For each flash intensity, 5 readings were taken and averaged.
# rd10 mice [4] = assay: Cone cell density in rd10 mice; type: in vivo, mouse; settings: P65; 40 mg/kg daily s.c.; 4 quadrants
# Procedure: as §1
# Cone cell density was measured by methods known by one of skill in the arts. See Komeima K, Rogers B S, Lu L, Campochiaro P A. Antioxidants reduce cone cell death in a model of retinitis pigmentosa. Proc Natl Acad Sci USA 2006; 103:11300-5 and Komeima K, Rogers B S, Campochiaro P A. Antioxidants slow photoreceptor cell death in mouse models of retinitis pigmentosa. J Cell Physiol 2007; 213:809-15. Briefly, mice at P65 were euthanized and the eyes were removed and fixed in 4% PFA for 1 hour followed by dissection to remove cornea, iris and lens. The retina was carefully isolated from the eyecup and a small incision was made at the nasal position for future orientation. […] The retinas were flat mounted and visualized by fluorescence microscopy using an excitation wavelength of 543 nm to detect rhodamine fluorescence of PNA.
# rd10 mice [5] = assay: Superoxide radicals (dihydroethidium dye) in rd10 retinas; type: in vivo, mouse; settings: data not shown
# rd10 mice [6] = assay: Nitrite and nitrotyrosine assays in retinas of rd10 mice; type: in vivo, mouse; settings: 40 mg/kg daily s.c.
# Procedure: as §1
# Nitrite concentration in retinas from P35 rd10 mice was measured using the Nitrate/Nitrite Colorimetric Assay Kit (Cayman Chemical Company, Ann Arbor, Mich.) according to the manufacturer's instructions. Nitrotyrosine assay was performed on retinas from P35 mice using the 3-Nitrotyrosine ELISA kit (Abcam, Cambridge, Mass.).
# rd10 mice [7] = assay: Outer nuclear layer (ONL) thickness in rd10 mice; type: in vivo, mouse; settings: P35; 40 mg/kg daily s.c.; 6 locations measured
# Procedure: as §1
# Measurements of ONL thickness were performed using methods known to one of skill in the art. See Lee S Y, Usui S, Zafar A B, et al. N-acetylcysteine promotes long term survival of cones in a model of retinitis pigmentosa. 2010; 226:1843-9. Briefly, 10 micron frozen ocular sections were cut in the 12:00 to 6:00 meridian, stained with hematoxylin and eosin, visualized with an Axioskop microscope from Zeiss, Thornwood, N.Y. and images were digitized using a three charge-coupled device (CCD) color video camera from Toshiba, Tokyo, Japan, and a frame grabber. […] Three separate sections were used for each mouse and averaged. Eight animals injected with vehicle and 9 animals injected with metipranolol were used to evaluate ONL thickness between these two groups.
# C57bl/6 female mice = assay: Laser-induced choroidal neovascularization at Bruch's membrane rupture sites; type: in vivo, mouse; settings: 40 mg/kg daily s.c., 3 days before to 1 week after laser
# Procedure: Choroidal neovascularization was induced by methods known to one of ordinary skill in the art. […] Am J Pathol 1998; 153(5):1641-6. Adult C57bl/6 female mice (Charles River, Wilmington, Mass.), 5 weeks of age, were given daily subcutaneous injections of 40 mg/kg metipranolol or vehicle (PBS containing 5.8% ethanol) every day, starting 3 days before laser-induced Bruch's membrane rupture and continuing through 1 week after laser treatment. Mice were anesthetized, with a mixture of ketamine (100 mg/kg) and xylazine (5 mg/kg) by intraperitoneal injections, and pupils were dilated with 0.5% tropicamide and 0.5% phenylephrine hydrochloride from Santen Pharmaceutical Co., Osaka, Japan. […] Following 1 week after laser, animals were euthanized and choroidal neovascularization was measured. […] The remaining eyecups consisting of the retinal pigmented epithelium, choroid, and sclera were stained with FITC-labeled Griffonia Simplicifolia lectin (GSA), which selectively stains vascular cells, fluorescent images were captured with an Axioskop microscope from Zeiss, Thornwood, N.Y., and the area of choroidal neovascularization at Bruch's membrane rupture sites were measured. These images were quantified using Image-Pro Plus software. […]
# NADPH Oxidase = NADPH Oxidase activity in retinas of rd10 mice; type: in vivo, mouse
# rd10 mice [8] = assay: Immunohistochemistry (rhodopsin, cone arrestin, 3-nitrotyrosine) of rd10 retinas; type: in vivo, mouse; settings: 40 mg/kg daily s.c.
# Procedure: as §1
# Ten microns ocular frozen sections were stained with anti-rhodopsin antibody 1D4 (1:200, ThermoFisher Scientific, Waltham, Mass.), anti-3-nitrotyrosine antibody (10 μg/ml, EMD Millipore, Temecula, Calif.) or anti-cone arrestin antibody (1:10,000, EMD Millipore, Temecula, Calif.).
# rd10 mice [9] = assay: TUNEL assay in retinas of rd10 mice; type: in vivo, mouse; settings: P23; 40 mg/kg daily s.c.
# Procedure: as §1
# Apoptotic cells were identified in retinas from P23 mice using the manufacturer's instructions for the In Situ Cell Death Detection Kit (Sigma Aldrich, St. Louis, Mo.).
smiles,measurement,setting,value
"Cc1cc(OCC(O)CNC(C)C)c(C)c(C)c1O (centres unmarked) [Desacetylmetipranolol, desacetylmetipranolol]",Cytotoxic,ARPE-19 monolayers [1],No
same,Cytotoxicity observed,ARPE-19 monolayers [1],No cytotoxicity was observed
same,Effect on gHSA induced reduction in RPE resistance (TEER),"ARPE-19 monolayers [2]; pretreatment 10 μM, 4 and 6 hours after gHSA",suppressed the gHSA induced reduction in RPE resistance
same,EC50,"ARPE-19 monolayers [2]; read-out: EC50 for suppression of the decrease in TEER induced by gHSA, pretreatment, gHSA 100 μg/mL",980 nM
"CC1(C)O[C@@H]2C[C@H]3[C@@H]4C[C@H](F)C5=CC(=O)C=C[C@]5(C)[C@@]4(F)[C@@H](O)C[C@]3(C)[C@]2(C(=O)CO)O1 [Fluocinolone, fluocinolone acetonide]",Cytotoxic,ARPE-19 monolayers [1],No
same,Cytotoxicity observed,ARPE-19 monolayers [1],No cytotoxicity was observed
same,Effect on reduction in TEER induced by gHSA,"ARPE-19 monolayers [2]; pretreatment 10^−6 to 10^−4 M, gHSA 100 μg/mL",did not significantly alter
"CC(=O)Oc1c(C)cc(OCC(O)CNC(C)C)c(C)c1C (centres unmarked) [Metipranolol, metipranolol]",Cytotoxic,ARPE-19 monolayers [1],No
same,Cytotoxicity observed,ARPE-19 monolayers [1],No cytotoxicity was observed
same,Mean scotopic b-wave amplitude vs vehicle,"rd10 mice [3]; P35, 40 mg/kg daily s.c. from P14, all 11 flash intensities",significantly higher
same,Mean scotopic a-wave amplitude vs vehicle,"rd10 mice [3]; P35, 40 mg/kg daily s.c. from P14, flash 1.0 and 1.39 log cd-s/m2",significantly greater
same,Photopic b-wave amplitudes vs vehicle,"rd10 mice [3]; P35, 40 mg/kg daily s.c., 0.6 and 1.0 log cd-s/m2",significantly higher
same,Mean scotopic b-wave amplitude vs vehicle,"rd10 mice [3]; P50, 40 mg/kg daily s.c., 1.0 and 1.39 log cd-s/m2",significantly higher
same,Mean photopic b-wave amplitude vs vehicle,"rd10 mice [3]; P50, 40 mg/kg daily s.c., 1.39 log cd-s/m2",significantly greater
same,Mean cone photoreceptor cell density vs vehicle,rd10 mice [4],significantly greater in 3 of 4 quadrants
same,Superoxide radicals (dihydroethidium dye) vs vehicle,rd10 mice [5],no differences were found
same,Mean concentration of nitrite in retinal homogenates,rd10 mice [6]; P35,significantly greater in retinal homogenates from P35 vehicle-treated versus metipranolol-treated rd10 mice
same,Mean concentration of 3-nitrotyrosine protein adducts (ELISA) vs vehicle,rd10 mice [6]; P35 retinas,significant reduction
same,Mean ONL thickness vs vehicle,rd10 mice [7],significantly greater at 4 of the 6 locations
same,Area of choroidal neovascularization at Bruch's membrane rupture sites vs vehicle,C57bl/6 female mice,significantly reduced
same,NADPH Oxidase activity,NADPH Oxidase,did not reduce NADPH Oxidase activity
same,Rhodopsin staining of outer segments,rd10 mice [8]; P35,substantially more rhodopsin staining
same,Staining for cone arrestin,rd10 mice [8]; P50,robust
same,Staining for nitrotyrosine,rd10 mice [8]; P50,"greater staining for nitrotyrosine in retinas from P50 vehicle-treated rd10 mice, than in P50 metipranolol-treated rd10 mice"
same,TUNEL-positive cells in retina,rd10 mice [9],few TUNEL-positive cells
same,EC50,"ARPE-19 monolayers [2]; Homo sapiens, ARPE-19 assay, concentration-response, gHSA-induced TEER decrease, read-out: EC50",1300 nM
